Experimental data reported in patent publication US20240270713A1, “NOVEL COMPOUND EXHIBITING THERAPEUTIC EFFECT ON INFLAMMATORY DISEASE AS P38 MAP KINASE INHIBITOR” (PRAZERTHERAPEUTICS INC., priority 2021, published 2024).

Tests used:
p-p38 MAPK [1] = target: p-p38 MAPK (Homo sapiens (Human), UniProt Q16539); assay: p38 MAPK protein inhibitory ability in brain-derived cells (p-p38 immunoblot, SH-SY5Y); assay type: cell-based
Experimental: Evaluation of p38 MAPK protein inhibitory ability in brain-derived cells
In order to identify inhibition of p-p38 MAPK in brain cells, the inhibition of p38 MAPK was identified by inducing inflammation after treating each compound to SH-SYSY cells obtained by converting human neurons into cancerous cells. In short, SH-SY5Y cells were cultured in Minimum essential medium/Eagle's balanced salts supplemented with 10% fetal bovine serum and penicillin/streptomycin (100 U/ml). SH-SY5Y cells were treated with 1 μM of Compounds 4 and 6 according to the present disclosure in a culture dish respectively and cultured for 24 hours in a CO2 incubator, and then treated with 1000 ng/ml of LPS, followed by additional culture for 6 hours in a CO2 incubator.
(§1) After cell culture was terminated according to the experimental conditions, cells were washed with cold phosphate buffered saline (PBS). The cells were then collected and centrifuged at 1200 rpm for 3 minutes. The cells in the sediment were lysed with 2X sample buffer (1M Tris-HCl pH 6.8, 50% glycerol, 10% SDS, 2-mercaptoethanol, 1% bromophenol blue) and boiled at 100° C. for 10 minutes. The prepared protein samples were subjected to sodium dodecyl sulfate poly acrylamide gel electrophoresis and transferred to PVDF membrane (Millipore). For a specific binding reaction between the protein in the PVDF membrane and antibody, blocking was performed in a 5% bovine serum albumin (BSA, RMbio) solution. Subsequently, the BSA solution was discarded, and the membrane was washed with PBS-T (0.5% Tween 20 in PBS). The binding reaction of the protein in the membrane and antibody was performed overnight at 4° C. and washed again with PBS-T. Finally, a secondary antibody (Cell signaling Technology) conjugated with horse radish peroxidase (HRP) was diluted in PBS-T and reacted at room temperature for 2 hours. Luminata Forte HRP substrate (Millipore) was used to determine the amount of protein in the membrane, the results of which are shown in Table 8 below.

p-p38 MAPK [2] = target: T1, p-p38 MAPK (Mus musculus (Mouse), UniProt P47811); assay: p38 MAPK protein inhibitory ability in normal brain cells (p-p38 immunoblot, primary neurons); assay type: cell-based, ICR mice
T1 sequence (P47811 whole entry): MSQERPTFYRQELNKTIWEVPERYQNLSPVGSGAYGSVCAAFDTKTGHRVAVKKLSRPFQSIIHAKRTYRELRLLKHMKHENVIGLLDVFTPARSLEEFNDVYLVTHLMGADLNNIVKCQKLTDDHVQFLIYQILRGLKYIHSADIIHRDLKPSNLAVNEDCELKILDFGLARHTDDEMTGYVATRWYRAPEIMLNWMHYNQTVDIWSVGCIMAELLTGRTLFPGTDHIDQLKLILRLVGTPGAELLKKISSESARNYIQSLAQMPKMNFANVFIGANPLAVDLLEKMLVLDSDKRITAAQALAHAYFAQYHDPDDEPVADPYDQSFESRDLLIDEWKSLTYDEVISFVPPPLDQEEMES
Source text: Evaluation of p38 MAPK protein inhibitory ability in normal brain cells
In order to identify inhibition of p-p38 MAPK in normal cells rather than cancer cells, the inhibition of p38 MAPK was identified by inducing inflammation after treating neuron cells obtained from cerebrum of ICR mice with each compound. In short, neurons were collected from the cerebrum of the embryos of ICR mice 17-18 days after gestation and cultured for 7 days in a neurobasal medium supplemented with 2% B27 supplements, 2 mM glutamine, and penicillin/streptomycin (100 U/ml). Primary neurons were treated with 1 μM of Compounds 4 and 6 according to the present disclosure in a culture dish respectively and cultured for 24 hours in a CO2 incubator, and then treated with 1000 ng/ml of LPS, followed by additional culture for 6 hours in a CO2 incubator.
as §1, with “After the” for “After”, “conditions, washing was performed” for “conditions, cells were washed”, “reaction between” for “reaction of”, “Table 9” for “Table 8”

IL-1β mRNA [3] = assay: Cytokine mRNA expression inhibitory ability, IL-1β, LPS-treated BV2 cells; assay type: cell-based; conditions: 1 μM compound 24 hours, then 1000 ng/ml LPS 24 hours
Experimental: (§2) Evaluation of cytokine mRNA expression inhibitory ability by inflammatory response
(§3) In order to identify inhibition of p-p38 MAPK, the inhibition of p38 MAPK was identified by treating each compound to BV2 cells obtained by converting microglia that induces inflammation according to p-p38 MAPK activity in the brain into cancerous cells. Briefly, BV2 cells were cultured in Dulbecco's modified Eagle Medium supplemented with 10% fetal bovine serum and penicillin/streptomycin (100 U/ml). BV2 cells were treated with 1 μM of Compounds 4 to 6 according to the present disclosure in a culture dish respectively and cultured for 24 hours in a CO2 incubator, and then treated with 1000 ng/ml of LPS, followed by additional culture for 24 hours in a CO2 incubator.
(§4) After the cell culture was completed according to the experimental conditions, washing was performed with cold phosphate buffered saline (PBS). The cells were then collected and centrifuged at 1200 rpm for 3 minutes. RNA was extracted according to the method provided in the Hybrid-R total RNA purification kit (GeneAllR), 305-101). After measuring the concentration and purity of RNA using Nanodrop, cDNA was synthesized according to the method provided in TOPscript RT DryMIX (Enzynomics, RT200). […]

TNFα mRNA [4] = assay: Cytokine mRNA expression inhibitory ability, TNFα, LPS-treated BV2 cells; assay type: cell-based; conditions: 1 μM compound 24 hours, then 1000 ng/ml LPS 24 hours
Experimental: as §2, §3, §4

IL-6 mRNA = assay: Cytokine mRNA expression inhibitory ability, IL-6, LPS-treated BV2 cells; assay type: cell-based; conditions: 1 μM compound 24 hours, then 1000 ng/ml LPS 24 hours
Experimental: as §2, §3, §4

p38 alpha = p38 alpha (Homo sapiens (Human), UniProt Q16539); assay: p38α MAPK inhibitory ability (peptide/kinase mixture, development reagent, 445/520 nm); assay type: biochemical; conditions: 1 hour at room temperature
p38 alpha, sequence (Q16539 whole entry): as the sequence (P47811 whole entry) above, with H48L, A263T counted along it
Experimental: Evaluation of p38a mitogen-activated protein kinase (MAPK) inhibitory ability
To determine the ability to inhibit p38 MAPK, Compounds 1 to 5 were diluted to determine the inhibitory effect depending on a concentration. Briefly, the compounds were diluted at concentrations of 1000, 333, 111, 37.0, 12.3, 4.12, 1.37, 0.457, 0.152, and 0.0495 nM, respectively, and then a peptide/kinase mixture (final 7.07-28.3 ng p38 alpha, 2 μM serine/threonine 15, 50 mM HEPES pH 7.0, 0.01% NaN3) and ATP solution were added respectively. After reacting at room temperature for 1 hour, a development reagent was added, followed by a reaction again at room temperature for 1 hour.

p-p38 MAPK [5] = target: T1, p-p38 MAPK; assay: p38 MAPK protein inhibitory ability in cells (p-p38 immunoblot, LPS-treated Raw264.7); assay type: cell-based; conditions: Raw264.7 cells, 1 μM compound 24 hours, then 100 ng/ml LPS 6 hours
Experimental: Evaluation of p38 MAPK protein inhibitory ability in cells
(§5) In order to identify inhibition of p-p38 MAPK, inhibition of p38 MAPK was identified after treating each compound to Raw264.7 cells which are obtained by converting macrophages that induces inflammation according to p-p38 MAPK activity into cancerous cells. Briefly, Raw264.7 cells were cultured in Dulbecco's modified Eagle Medium supplemented with 10% fetal bovine serum and penicillin/streptomycin (100 U/ml). Raw264.7 cells were treated with 1 μM of Compounds 1 to 5 according to the present disclosure in a culture dish respectively and cultured for 24 hours in a CO2 incubator, and then treated with 100 ng/ml of LPS, followed by additional culture for 6 hours in a CO2 incubator.
as §1, with “The pellet was” for “The cells in the sediment were”, “Table 4” for “Table 8”

IL-1β mRNA [6] = assay: Cytokine mRNA expression inhibitory ability, IL-1β, LPS-treated Raw264.7 cells; assay type: cell-based; conditions: 1 μM compound 24 hours, then 100 ng/ml LPS 24 hours
Experimental: (§6) Evaluation of cytokine mRNA expression inhibitory ability according to inflammatory response
as §5, with “cells” for “cells which are”, “activity” for “activity into”, “for 24” for “for 6”
(§7) After cell culture was terminated according to the experimental conditions, cells were washed with cold phosphate buffered saline (PBS). The cells were then collected and centrifuged at 1200 rpm for 3 minutes. RNA was extracted according to the method provided in the Hybrid-R total RNA purification kit (GeneAll, 305-101). After measuring the concentration and purity of RNA using Nanodrop, cDNA was synthesized according to the method provided in TOPscript RT DryMIX (Enzynomics, RT200). After a reaction at 95° C. for 3 minutes using SYBR Green Mix along with primer, cDNA was subjected to repetitive reactions 30 times at 95° C. for 10 seconds, at 55° C. for 10 seconds, and at 72° C. for 30 seconds to determine the RNA expression level. The results are shown in Tables 5 and 6 below and FIGS. 1 and 2.

TNFα mRNA [7] = assay: Cytokine mRNA expression inhibitory ability, TNFα, LPS-treated Raw264.7 cells; assay type: cell-based; conditions: 1 μM compound 24 hours, then 100 ng/ml LPS 24 hours
Experimental: as §6
as §5, with “cells” for “cells which are”, “activity” for “activity into”, “for 24” for “for 6”
as §7

TNFα = TNFα inhibitory ability by cellular inflammatory response (supernatant, antibody-coated plate), Raw264.7 cells; assay type: cell-based; conditions: Mus musculus, 1 μM compound 24 hours, then 100 ng/ml LPS 24 hours, supernatant protein
Experimental: Evaluation of TNFα inhibitory ability by cellular inflammatory response
as §5, with “cells” for “cells which are”, “activity” for “activity into”, “for 24” for “for 6”
After the cell culture was completed according to the experimental conditions, the supernatant was obtained and centrifuged for 3 minutes at 1200 rpm. The centrifuged supernatant was dispensed into an antibody-coated plate, reacted at room temperature for 2 hours, and washed with PBS-T (0.5% tween 20 in PBS). After dispensing detection antibody including HRP, a reaction was performed at room temperature for 1 hour, and the amount of protein was checked at a wavelength of 450 nm, the results of which are shown in Table 7 below.

p-p38 MAPK (Homo sapiens (Human), UniProt Q16539), sequence (Q16539 whole entry): as the sequence (P47811 whole entry) above, with H48L, A263T counted along it

SMILES | IC50 (p38 alpha) | inhibition at 1 µM (p-p38 MAPK [5]) | p38 phosphorylation in cells derived from human (result in words) (p-p38 MAPK [1]; 1 μM) | inhibition at 1 µM (p-p38 MAPK [1]; 1 μM compound 24 hours, then 1000 ng/ml LPS 6 hours) | p38 phosphorylation due to inflammation in normal cells (result in words) (p-p38 MAPK [2]; primary mouse neurons, 1 μM) | inhibition at 1 µM (p-p38 MAPK [2]; primary neurons from cerebrum of ICR mouse embryos, 1 μM compound 24 hours, then 1000 ng/ml LPS 6 hours) | IL-1β mRNA inhibition (IL-1β mRNA [3]) | TNFα mRNA inhibition (TNFα mRNA [4]) | IL-6 mRNA inhibition (IL-6 mRNA) | IL-1β mRNA inhibition (IL-1β mRNA [6]) | TNFα mRNA inhibition (TNFα mRNA [7]) | inhibition at 1 µM (TNFα)
Cc1c(F)cc(C(=O)NC2CC2)cc1-c1ccc(C(=O)c2cn(CC(O)CO)c3ccccc23)cn1 (stereo not drawn) [Compound 6, N-cyclopropyl-3-(5-(1-(2,3-dihydroxypropyl)-1H-indole-3-carbonyl)pyridin-2-yl)-5-fluoro-4-methylbenzamide] | – | – | effectively inhibited p38 phosphorylation | 22.8% | effectively inhibited p38 phosphorylation | 60.7% | 12.6% | 15.7% | 14.4% | – | – | –
Cc1c(F)cc(C(=O)NC2CC2)cc1-c1ccc(C(=O)c2cn(Cc3ccccc3)c3ccccc23)cn1 [Compound 5, 3-(5-(1-benzyl-1H-indole-3-carbonyl)pyridin-2-yl)-N-cyclopropyl-5-fluoro-4-methylbenzamide] | 193 nM | 52.8% | – | – | – | – | – | – | – | 3.2% | 4.1% | 23.8%

Now from value to molecule, other results behind:

IC50 (p38 alpha) | inhibition at 1 µM (p-p38 MAPK [5]) | SMILES | p38 phosphorylation in cells derived from human (result in words) (p-p38 MAPK [1]; 1 μM) | inhibition at 1 µM (p-p38 MAPK [1]; 1 μM compound 24 hours, then 1000 ng/ml LPS 6 hours) | p38 phosphorylation due to inflammation in normal cells (result in words) (p-p38 MAPK [2]; primary mouse neurons, 1 μM) | inhibition at 1 µM (p-p38 MAPK [2]; primary neurons from cerebrum of ICR mouse embryos, 1 μM compound 24 hours, then 1000 ng/ml LPS 6 hours) | IL-1β mRNA inhibition (IL-1β mRNA [3]) | TNFα mRNA inhibition (TNFα mRNA [4]) | IL-6 mRNA inhibition (IL-6 mRNA) | IL-1β mRNA inhibition (IL-1β mRNA [6]) | TNFα mRNA inhibition (TNFα mRNA [7]) | inhibition at 1 µM (TNFα)
34.1 nM | 69% | O=C(NC1CC1)c1ccc(Cl)c(-c2ccc(C(=O)c3c[nH]c4ccccc34)cc2)c1 [Compound 2, 6-chloro-N-cyclopropyl-4′-(1H-indole-3-carbonyl)-[1,1′-biphenyl]-3-carboxamide] | – | – | – | – | – | – | – | 24.4% | 37.6% | 68.5%
22.3 nM | 11.3% | Cc1c(F)cc(C(=O)NC2CC2)cc1-c1ccc(C(=O)c2ccc(OCC(O)CO)cc2)cn1 (stereo not drawn) [Compound 1, N-cyclopropyl-3-(5-(4-(2,3-dihydroxypropoxy)benzoyl)pyridin-2-yl)-5-fluoro-4-methylbenzamide] | – | – | – | – | – | – | – | 21.4% | 38.1% | 22.1%
34.3 nM | 39.7% | Cc1c(F)cc(C(=O)NC2CC2)cc1-c1ccc(C(=O)c2c[nH]c3cc(OCC(O)CO)ccc23)cn1 (stereo not drawn) [Compound 3, N-cyclopropyl-3-(5-(6-(2,3-dihydroxypropoxy)-1H-indole-3-carbonyl)pyridin-2-yl)-5-fluoro-4-methylbenzamide] | – | – | – | – | – | – | – | 12.3% | 39.2% | 16.7%
